Test results published in PubChem BioAssay AID1845216 (Molecular Pharmacology Branch, DTP, NCI, 2023).
pIC50: −log10 of the molar value. Where “and” joins values, the source holds several entries; their conditions need not be identical. Equal entries are not always repeated.

System: SW 982 tumor spheroid viability
Test: Anticancer human tumor SW 982 cell line growth inhibition;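 further: spheroids exposed to compound for 7 days before readout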
Details: spheroids with HUVEC and MSC; for viability, T/C: stronger effect = lower value
Procedure, shortened: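 Single agents and combinations were tested on spheroids built from tumor cells plus HUVEC and hMSC, at half-log dilutions starting at or near clinical Cmax, else 10 microM; final DMSO 0.25% (v/v).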

With `[2H]c1nc(C)nc([2H])c1-c1cc(NC[C@@H](C)c2cccc3c(C(=O)NC)ccnc23)ncn1` + Cn1nnc2c(C(N)=O)ncn2c1=O the pIC50 (curve of first compound, second compound 1 µM) was less than 5.00, the pIC50 (curve of first compound, second compound 3.16 µM) was less than 5.00 and the pIC50 (curve of first compound, second compound 10 µM) was less than 5.00. The pIC50 (curve of first compound, second compound 31.6 µM) was less than 5.00, the pIC50 (curve of first compound, second compound 100 µM) was less than 5.00 and the viability, T/C (second compound 1 µM, first compound 0.0316 µM) was 100%. The viability, T/C (second compound 1 µM, first compound 0.1 µM) was 102%, the viability, T/C (second compound 1 µM, first compound 0.316 µM) was 92.6% and the viability, T/C (second compound 1 µM, first compound 1 µM) was 103%. The viability, T/C (second compound 1 µM, first compound 3.16 µM) was 106%, the viability, T/C (second compound 1 µM, first compound 10 µM) was 82.3% and the viability, T/C (second compound 3.16 µM, first compound 0.0316 µM) was 92.6%. For the same compound, the viability, T/C (second compound 3.16 µM, first compound 0.1 µM) was 86.4%, the viability, T/C (second compound 3.16 µM, first compound 0.316 µM) was 96% and the viability, T/C (second compound 3.16 µM, first compound 1 µM) was 86.8%. For the same compound, the viability, T/C (second compound 3.16 µM, first compound 3.16 µM) was 63.9%, the viability, T/C (second compound 3.16 µM, first compound 10 µM) was 55.1% and the viability, T/C (second compound 10 µM, first compound 0.0316 µM) was 83.8%. The viability, T/C (second compound 10 µM, first compound 0.1 µM) was 76%, the viability, T/C (second compound 10 µM, first compound 0.316 µM) was 78.5% and the viability, T/C (second compound 10 µM, first compound 1 µM) was 80.7%. It also gave a viability, T/C (second compound 10 µM, first compound 3.16 µM) of 71.7%, a viability, T/C (second compound 10 µM, first compound 10 µM) of 59.8% and a viability, T/C (second compound 31.6 µM, first compound 0.0316 µM) of 69.5%. For the same compound, the viability, T/C (second compound 31.6 µM, first compound 0.1 µM) was 76.2%, the viability, T/C (second compound 31.6 µM, first compound 0.316 µM) was 76.8% and the viability, T/C (second compound 31.6 µM, first compound 1 µM) was 72.5%. It also gave a viability, T/C (second compound 31.6 µM, first compound 3.16 µM) of 76.5%, a viability, T/C (second compound 31.6 µM, first compound 10 µM) of 71.2% and a viability, T/C (second compound 100 µM, first compound 0.0316 µM) of 63.5%. The viability, T/C (second compound 100 µM, first compound 0.1 µM) was 63.4%, the viability, T/C (second compound 100 µM, first compound 0.316 µM) was 58% and the viability, T/C (second compound 100 µM, first compound 1 µM) was 60.9%. The viability, T/C (second compound 100 µM, first compound 3.16 µM) was 56.9% and the viability, T/C (second compound 100 µM, first compound 10 µM) was 60.7%.
Compound `Cc1sc2c(c1C)C(c1ccc(Cl)cc1)=NC(CC(=O)Nc1ccc(O)cc1)c1nnc(C)n1-2` (configuration not stated) + CC[C@@]1(O)C(=O)OCc2c1cc1n(c2=O)Cc2cc3c(CN(C)C)c(O)ccc3nc2-1 has a pIC50 (curve of first compound, second compound 0.003 µM) of 6.55, a pIC50 (curve of first compound, second compound 0.00949 µM) of 6.26 and a pIC50 (curve of first compound, second compound 0.03 µM) of 6.31. The pIC50 (curve of first compound, second compound 0.0949 µM) was 6.35, the pIC50 (curve of first compound, second compound 0.3 µM) was 6.60 and the viability, T/C (second compound 0.003 µM, first compound 0.00949 µM) was 112%. The viability, T/C (second compound 0.003 µM, first compound 0.03 µM) was 110%, the viability, T/C (second compound 0.003 µM, first compound 0.0949 µM) was 76.4% and the viability, T/C (second compound 0.003 µM, first compound 0.3 µM) was 49.8%. The viability, T/C (second compound 0.003 µM, first compound 0.949 µM) was 40.1%, the viability, T/C (second compound 0.003 µM, first compound 3 µM) was 30.5% and the viability, T/C (second compound 0.00949 µM, first compound 0.00949 µM) was 97%. It also gave a viability, T/C (second compound 0.00949 µM, first compound 0.03 µM) of 98.9%, a viability, T/C (second compound 0.00949 µM, first compound 0.0949 µM) of 81.5% and a viability, T/C (second compound 0.00949 µM, first compound 0.3 µM) of 63.8%. It also gave a viability, T/C (second compound 0.00949 µM, first compound 0.949 µM) of 36.9%, a viability, T/C (second compound 0.00949 µM, first compound 3 µM) of 36.4% and a viability, T/C (second compound 0.03 µM, first compound 0.00949 µM) of 97.1%. For the same compound, the viability, T/C (second compound 0.03 µM, first compound 0.03 µM) was 95.8%, the viability, T/C (second compound 0.03 µM, first compound 0.0949 µM) was 83.2% and the viability, T/C (second compound 0.03 µM, first compound 0.3 µM) was 58.4%. For the same compound, the viability, T/C (second compound 0.03 µM, first compound 0.949 µM) was 38.8%, the viability, T/C (second compound 0.03 µM, first compound 3 µM) was 29.8% and the viability, T/C (second compound 0.0949 µM, first compound 0.00949 µM) was 95.2%. The viability, T/C (second compound 0.0949 µM, first compound 0.03 µM) was 92.1%, the viability, T/C (second compound 0.0949 µM, first compound 0.0949 µM) was 85.9% and the viability, T/C (second compound 0.0949 µM, first compound 0.3 µM) was 57.8%. For the same compound, the viability, T/C (second compound 0.0949 µM, first compound 0.949 µM) was 35.5%, the viability, T/C (second compound 0.0949 µM, first compound 3 µM) was 29.2% and the viability, T/C (second compound 0.3 µM, first compound 0.00949 µM) was 73.5%. It also gave a viability, T/C (second compound 0.3 µM, first compound 0.03 µM) of 80.6%, a viability, T/C (second compound 0.3 µM, first compound 0.0949 µM) of 71% and a viability, T/C (second compound 0.3 µM, first compound 0.3 µM) of 45.6%. For the same compound, the viability, T/C (second compound 0.3 µM, first compound 0.949 µM) was 30.4% and the viability, T/C (second compound 0.3 µM, first compound 3 µM) was 22.9%.
For `Cc1cc(C)c(CNC(=O)c2cc(-c3ccc(CN4CCOCC4)cc3)cc3c2cnn3C2CCCC2)c(=O)[nH]1`, the viability, T/C (compound 0.0316 µM) was 111% and 101% and 106%, the viability, T/C (compound 0.1 µM) was 99.1% and 105% and 100% and the viability, T/C (compound 0.316 µM) was 97.4% and 99.9% and 105%. For the same compound, the viability, T/C (compound 1 µM) was 102% and 99.6% and 105%, the viability, T/C (compound 3.16 µM) was 95.3% and 98.8% and 82% and the viability, T/C (compound 10 µM) was 60.5% and 58.6% and 69%. For the same compound, the pIC50 (curve of compound) was less than 5.00.
